Results from patent US20210268004A1, “COMPOSITION CONTAINING BECLOMETHASONE FOR THE PREVENTION AND THE TREATMENT OF BACTERIAL PROSTATITIS AND VAGINITIS” (SOFAR S.P.A., priority 2018, published 2021).
Read-outs that look alike come from different tables or passages of the source.

Key:
[1] = tested on: colorectal mucosa (epithelial tissue of the human colon reconstructed in 3D); conditions: for recovery %: human
Method: The trial was conducted according to the OCSE TG 428-EU approved method used for percutaneous penetration.
Like in the first trial, the test was conducted at 37° C. and relative humidity >90%.
Like in the first phase, the test was conducted at 37° C. and relative humidity >90%.

[2] = rectal treatment; cited from earlier work

Row | recovery Total [1] | recovery % ([1]; 24 h, 5 mg/mL) | recovery % ([1]; 48 h, 200 mg/mL) | Structure (SMILES) | adverse effects [2]
1 | 149.81 | 200% |  | CCC(=O)OCC(=O)[C@@]1(OC(=O)CC)[C@@H](C)C[C@H]2[C@@H]3CCC4=CC(=O)C=C[C@]4(C)[C@@]3(Cl)[C@@H](O)C[C@@]21C [BDP A, beclomethasone dipropionate] | 
2 | 133.53 | 89% |  | CCC(=O)OCC(=O)[C@@]1(OC(=O)CC)[C@@H](C)C[C@H]2[C@@H]3CCC4=CC(=O)C=C[C@]4(C)[C@@]3(Cl)[C@@H](O)C[C@@]21C [BDP B, beclomethasone dipropionate] | 
3 | 112.53 | 75% |  | CCC(=O)OCC(=O)[C@@]1(OC(=O)CC)[C@@H](C)C[C@H]2[C@@H]3CCC4=CC(=O)C=C[C@]4(C)[C@@]3(Cl)[C@@H](O)C[C@@]21C [BDP C, beclomethasone dipropionate] | 
4 | 1339.30 |  | 22% | CCC(=O)OCC(=O)[C@@]1(OC(=O)CC)[C@@H](C)C[C@H]2[C@@H]3CCC4=CC(=O)C=C[C@]4(C)[C@@]3(Cl)[C@@H](O)C[C@@]21C [BDP D, beclomethasone dipropionate] | 
5 |  |  |  | CCC(=O)OCC(=O)[C@@]1(OC(=O)CC)[C@@H](C)C[C@H]2[C@@H]3CCC4=CC(=O)C=C[C@]4(C)[C@@]3(Cl)[C@@H](O)C[C@@]21C [BDP, beclomethasone dipropionate] | almost without the adverse effects typical of steroids
